The supplement of paper PMC11061612

Tests used:
Test in all cases: Bliss excess, mean over the matrix (fraction); higher = more synergy
[1] = tested on: DND-41 (T-Lymphoblastic Leukemia)
Outline: (§1)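 After 24 hours at 37°C and 5% CO2 in 1536-well plates, cells in DMEM/F12 or RPMI plus 10% FBS received two-drug dose matrices for 72 hours. Viability came from CellTiter-Glo 2.0 luminescence and was scaled as inhibition, anchored at 0 by vehicle wells and at 1 by blank wells. Combination Emax is taken as the second-highest inhibition in the matrix, and Bliss excess as the observed combination effect less EA + EB − EA·EB, with EA and EB the single-agent effects.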

ES1 (Ewing's Sarcoma) = tested on: ES1 (Ewing's Sarcoma)
Outline: as §1

[2] = tested on: MOLT-16 (T-Lymphoblastic Leukemia)
Outline: as §1

[3] = tested on: BFTC-905 (Bladder Carcinoma)
Outline: as §1

[4] = tested on: SR (Other Blood Carcinomas)
Outline: as §1

LN-18 (Glioblastoma) = tested on: LN-18 (Glioblastoma)
Outline: as §1

[5] = tested on: HL-60 (Acute Myeloid Leukemia)
Outline: as §1

[6] = tested on: K-562 (Chronic Myelogenous Leukemia)
Outline: as §1

[7] = tested on: GR-ST (B-Lymphoblastic Leukemia)
Outline: as §1

WM-115 (Melanoma) = tested on: WM-115 (Melanoma)
Outline: as §1

[8] = tested on: L-540 (Hodgkin's Lymphoma)
Outline: as §1

[9] = tested on: PANC-08-13 (Pancreatic Carcinoma)
Outline: as §1

[10] = tested on: SW837 (Colorectal Carcinoma)
Outline: as §1

CHP-212 (Neuroblastoma) = tested on: CHP-212 (Neuroblastoma)
Outline: as §1

[11] = tested on: COLO-678 (Colorectal Carcinoma)
Outline: as §1

[12] = tested on: KARPAS-45 (T-Lymphoblastic Leukemia)
Outline: as §1

[13] = tested on: KM12 (Colorectal Carcinoma)
Outline: as §1

[14] = tested on: KCL-22 (Chronic Myelogenous Leukemia)
Outline: as §1

NCI-H2818 (Mesothelioma) = tested on: NCI-H2818 (Mesothelioma)
Outline: as §1

[15] = tested on: TOV-112D (Ovarian Carcinoma)
Outline: as §1

SMILES | Bliss excess [1] | Bliss excess (ES1 (Ewing's Sarcoma)) | Bliss excess [2] | Bliss excess [3] | Bliss excess [4] | Bliss excess (LN-18 (Glioblastoma)) | Bliss excess [5] | Bliss excess [6] | Bliss excess [7] | Bliss excess (WM-115 (Melanoma)) | Bliss excess [8] | Bliss excess [9] | Bliss excess [10] | Bliss excess (CHP-212 (Neuroblastoma)) | Bliss excess [11] | Bliss excess [12] | Bliss excess [13] | Bliss excess [14] | Bliss excess (NCI-H2818 (Mesothelioma)) | Bliss excess [15]
CN(C)CCCOc1ccc(-c2ccc3ncc4c(c3c2)n(C2CCOCC2)c(=O)n4C)cn1 [AZD0156] + C=CCn1c(=O)c2cnc(Nc3ccc(N4CCN(C)CC4)cc3)nc2n1-c1cccc(C(C)(C)O)n1 [AZD1775] (first compound max 1 µM, partner max 1 µM) | -0.0029 | -0.0018 | -0.0108 | -0.0022 | -0.0509 | -0.0307 | -0.0177 | -0.0269 | -0.0229 | -0.0383 | 0.0604 | -0.0586 | -0.0431 | -0.0165 | -0.0197 | -0.0182 | -0.0223 | -0.0326 | -0.0556 | 0.0039
CN(C)CCCOc1ccc(-c2ccc3ncc4c(c3c2)n(C2CCOCC2)c(=O)n4C)cn1 [AZD0156] + CCN(CCO)CCCOc1ccc2c(Nc3cc(CC(=O)Nc4cccc(F)c4)[nH]n3)ncnc2c1 [AZD2811] (first compound max 1 µM, 7x7, partner max 1 µM) | 0.0072 | 0.148 | -0.0087 | 0.0116 | -0.0666 | 0.0009 | -0.0762 | -0.0011 | 0.0033 | -0.0368 | 0.0074 | -0.0461 | -0.0263 | -0.0254 | -0.0179 | -0.0515 | -0.0163 | 0.0703 | -0.0491 | -0.0025
CN(C)CCCOc1ccc(-c2ccc3ncc4c(c3c2)n(C2CCOCC2)c(=O)n4C)cn1 [AZD0156] + C[C@@H]1COCCN1C2=NC(=NC(=C2)C3(CC3)[S@](=N)(=O)C)C4=C5C=CNC5=NC=C4 [AZD6738] (first compound max 1 µM, 7x7, partner max 10 µM) | -0.0034 | 0.0554 | -0.0399 | 0.0463 | 0.015 | 0.0505 | -0.0159 | -0.0079 | -0.0006 | -0.0565 | -0.0163 | -0.0376 | 0.0071 | -0.0047 | -0.0169 | 0.0333 | 0.0161 | 0.0274 | -0.0511 | 0.0136
CN(C)CCCOc1ccc(-c2ccc3ncc4c(c3c2)n(C2CCOCC2)c(=O)n4C)cn1 [AZD0156] + O=C(c1cc(Cc2n[nH]c(=O)c3ccccc23)ccc1F)N1CCN(C(=O)C2CC2)CC1 [Olaparib] (first compound max 3 µM, partner max 3 µM) | 0.0867 | 0.245 | 0.397 | 0.175 | 0.194 | 0.0366 | 0.141 | 0.0271 | 0.131 | 0.0028 | 0.0746 | -0.0215 | 0.0159 | 0.222 | -0.0152 | 0.0456 | 0.121 | 0.157 | -0.0202 | 0.0851
C=CCn1c(=O)c2cnc(Nc3ccc(N4CCN(C)CC4)cc3)nc2n1-c1cccc(C(C)(C)O)n1 [AZD1775] + C1CN(CCC1(C(=O)N[C@@H](CCO)C2=CC=C(C=C2)Cl)N)C3=NC=NC4=C3C=CN4 [Capivasertib] (first compound max 3 µM, partner max 3 µM) | -0.0428 | -0.0219 | 0.0568 | -0.0499 | 0.0013 | 0.0196 | 0.0265 | -0.0516 | -0.0771 | -0.116 | -0.0019 | -0.0493 | -0.0504 | -0.077 | -0.0893 | -0.0046 | -0.0162 | 0.035 | -0.0493 | 0.028
C=CCn1c(=O)c2cnc(Nc3ccc(N4CCN(C)CC4)cc3)nc2n1-c1cccc(C(C)(C)O)n1 [AZD1775] + C[C@@H]1COCCN1C2=NC(=NC(=C2)C3(CC3)[S@](=N)(=O)C)C4=C5C=CNC5=NC=C4 [AZD6738] (first compound max 1 µM, partner max 10 µM) | 0.0181 | 0.0487 | 0.0101 | 0.0665 | 0.0174 | 0.086 | 0.0975 | 0.0433 | -0.0217 | -0.0523 | -0.0091 | -0.0203 | 0.0057 | -0.0567 | -0.028 | 0.0465 | 0.0228 | 0.0331 | -0.0577 | 0.0714
C=CCn1c(=O)c2cnc(Nc3ccc(N4CCN(C)CC4)cc3)nc2n1-c1cccc(C(C)(C)O)n1 [AZD1775] + O=C(c1cc(Cc2n[nH]c(=O)c3ccccc23)ccc1F)N1CCN(C(=O)C2CC2)CC1 [Olaparib] (first compound max 1 µM, partner max 10 µM) | -0.0025 | -0.0114 | 0.0004 | -0.0292 | 0.0597 | -0.037 | -0.0554 | -0.0678 | -0.0334 | -0.0169 | -0.045 | -0.0095 | -0.0125 | -0.0383 | -0.012 | -0.0302 | -0.0201 | -0.0415 | 0.0324 | -0.0139
CCN(CCO)CCCOc1ccc2c(Nc3cc(CC(=O)Nc4cccc(F)c4)[nH]n3)ncnc2c1 [AZD2811] + C=CCn1c(=O)c2cnc(Nc3ccc(N4CCN(C)CC4)cc3)nc2n1-c1cccc(C(C)(C)O)n1 [AZD1775] (first compound max 1 µM, partner max 1 µM) | 0.0198 | 0.16 | -0.0255 | 0.0468 | -0.0146 | 0.0214 | -0.0445 | 0.0526 | -0.0338 | -0.0562 | 0.0772 | -0.0319 | 0.0033 | -0.0625 | -0.0002 | -0.0766 | -0.0092 | 0.0162 | -0.0461 | 0.105
CCN(CCO)CCCOc1ccc2c(Nc3cc(CC(=O)Nc4cccc(F)c4)[nH]n3)ncnc2c1 [AZD2811] + C[C@@H]1COCCN1C2=NC(=NC(=C2)C3(CC3)[S@](=N)(=O)C)C4=C5C=CNC5=NC=C4 [AZD6738] (first compound max 1 µM, 7x7, partner max 10 µM) | -0.018 | 0.0413 | -0.0021 | -0.0462 | -0.0533 | -0.0151 | -0.0776 | -0.0494 | -0.0298 | -0.0345 | -0.0078 | -0.0312 | -0.0252 | -0.0822 | -0.0034 | -0.0944 | -0.0709 | 0.0285 | -0.0925 | 0.0433
CN(CCO)CC[C@H](CSc1ccccc1)Nc1ccc(S(=O)(=O)NC(=O)c2ccc(N3CCC([C@@H](O)c4ccccc4-c4ccc(Cl)cc4)CC3)cc2)cc1S(=O)(=O)C(F)(F)F [AZD4320] + C[C@@H](Nc1cc(F)cc(F)c1)c1cc(C(=O)N(C)C)cc2c(=O)cc(N3CCOCC3)oc12 [AZD8186] (first compound max 1 µM, 7x7, partner max 3 µM) | 0.0338 | 0.0591 | -0.0157 | -0.0221 | 0.0428 | 0.0608 | – | 0.0309 | -0.054 | 0.0755 | 0.068 | -0.007 | -0.0491 | -0.072 | 0.0221 | 0.0842 | 0.0562 | 0.0307 | -0.0232 | -0.0108
COc1nnc2ccc(N3CCC(c4ccc(OCCN5CCN(C)C(=O)[C@H]5C)cc4)CC3)nn12 [AZD5153] + CN(CC[C@H](CSC1=CC=CC=C1)NC2=C(C=C(C=C2)S(=O)(=O)NC(=O)C3=CC=C(C=C3)N4CCC(CC4)[C@H](C5=CC=CC=C5C6=CC=C(C=C6)Cl)O)S(=O)(=O)C(F)(F)F)CCO [AZD4320] (first compound max 1 µM, 7x7, partner max 1 µM) | – | – | 0.0258 | – | – | -0.0251 | -0.0203 | – | – | – | – | 0.0589 | – | -0.0243 | 0.0322 | 0.0274 | 0.0033 | 0.078 | – | 0.0022
Cc1c2c(nn1C)CSCc1cc(n(C)n1)CSc1cc(c3ccccc3c1)OCCCc1c(C(=O)O)n(C)c3c-2c(Cl)ccc13 [AZD5991] + CC1(C)CCC(CN2CCN(c3ccc(C(=O)NS(=O)(=O)c4ccc(NCC5CCOCC5)c([N+](=O)[O-])c4)c(Oc4cnc5[nH]ccc5c4)c3)CC2)=C(c2ccc(Cl)cc2)C1 [Venetoclax] (first compound max 1 µM, 7x7, partner max 1 µM) | 0.044 | 0.0817 | 0.063 | -0.0016 | 0.0732 | -0.0167 | 0.0723 | -0.003 | -0.0484 | -0.0496 | 0.0902 | -0.0411 | -0.0169 | -0.0416 | – | 0.141 | 0.0015 | 0.0111 | -0.0489 | 0.0582
Cc1c2c(nn1C)CSCc1cc(n(C)n1)CSc1cc(c3ccccc3c1)OCCCc1c(C(=O)O)n(C)c3c-2c(Cl)ccc13 [AZD5991] + C[C@@H](Nc1cc(F)cc(F)c1)c1cc(C(=O)N(C)C)cc2c(=O)cc(N3CCOCC3)oc12 [AZD8186] (first compound max 1 µM, 7x7, partner max 3 µM) | -0.0249 | 0.013 | -0.0154 | -0.012 | -0.0278 | 0.0079 | – | 0.0096 | -0.0352 | 0.018 | -0.0224 | 0.0187 | -0.0156 | -0.0203 | -0.0613 | 0.0206 | 0.0121 | -0.0268 | -0.0343 | -0.0028
CC(=O)c1c(C)c2cnc(Nc3ccc(N4CCNCC4)cn3)nc2n(C2CCCC2)c1=O [Palbociclib] + CN(CC[C@H](CSC1=CC=CC=C1)NC2=C(C=C(C=C2)S(=O)(=O)NC(=O)C3=CC=C(C=C3)N4CCC(CC4)[C@H](C5=CC=CC=C5C6=CC=C(C=C6)Cl)O)S(=O)(=O)C(F)(F)F)CCO [AZD4320] (first compound max 10 µM, 7x7, partner max 1 µM) | – | – | -0.0494 | – | – | -0.0081 | -0.102 | – | – | – | – | -0.0459 | – | -0.0366 | -0.0747 | -0.0035 | -0.0377 | -0.0299 | – | -0.0002
CCc1c2c(nc3ccc(O)cc13)-c1cc3c(c(=O)n1C2)COC(=O)[C@]3(O)CC [SN-38] + O=C(c1cc(Cc2n[nH]c(=O)c3ccccc23)ccc1F)N1CCN(C(=O)C2CC2)CC1 [Olaparib] (first compound max 0.3 µM, 7x7, partner max 10 µM) | 0.0343 | 0.0779 | – | 0.0451 | 0.0614 | – | – | 0.0222 | -0.05 | 0.0847 | 0.0196 | -0.0202 | 0.0302 | – | 0.0487 | – | -0.0102 | 0.0525 | 0.0548 | 0.0453
